Assay results as given in US20130295154A1, “POLY(METH)ACRYLATE BASED MICROCAPSULES COMPRISING PHEROMONE” (BASF SE, priority 2011, published 2013).

Test system: male codling moths
Assay: Wind tunnel test, behavioral responses of male codling moths
Type: in vivo, Cydia pomonella (codling moth)
[1] = Example 6, mean percentage, 100000 μg alone
[2] = Example 5, 100 μg alone, initial values
[3] = Example 6, mean percentage, 100 μg alone

Row | SMILES | Oriented Flight of Males [1] [%] | Source Contact of Males [1] [%] | Upwind Response of Males [1] [%] | Oriented Flight of Males [2] | Source Contact of Males [2] | Upwind Response of Males [2] | Oriented Flight of Males [3] [%] | Source Contact of Males [3] [%] | Upwind Response of Males [3] [%]
1 | CC(C)=CCC/C(C)=C/CC/C(C)=C/CO [E,E-farnesol] | 0 | 0 | 25 | – | – | – | – | – | –
2 | CCCCCOC(C)=O [amyl acetate] | 5 | 0 | 30 | – | – | – | – | – | –
3 | C/C=C/C=C/CCCCCCCO [codlemone, (E,E)-8,10-dodecadien-1-ol] | – | – | – | 55 | 40 | 60 | 60 | 50 | 70
4 | CCCCCCCCCCCCO [dodecanol] | 0 | 0 | 20 | – | – | – | – | – | –
5 | CCOC(=O)CC(C)C [ethyl isovalerate, ethyl 3-methylbutanoate] | 10 | 0 | 30 | – | – | – | – | – | –
6 | COC(=O)c1ccccc1O [methyl salicylate] | 0 | 0 | 25 | – | – | – | – | – | –
7 | CCCCC/C=C\C=C\C(=O)OCC [pear ester, ethyl (2E,4Z)-decadienoate] | 0 | 0 | 27 | – | – | – | – | – | –
